Assay results from ChEMBL document CHEMBL1122334, “New azacannabinoids highly active in the central nervous system” (1983).

Tests used:
Format in all cases: functional
Mus musculus [1] = experiment: The compound was tested for analgesic activity using writhing (W) test in mouse at a dose of 10 mg/Kg
Mus musculus [2] = experiment: The compound was tested for activity to decrease fighting in mouse at a dose of 20 mg/Kg
Mus musculus [3] = experiment: The compound was tested for activity to decrease fighting in mouse at a dose of 5 mg/Kg
Rattus norvegicus [4] = experiment: The compound was tested for serotonin antagonism in rat at a dose of 5 mg/Kg
Rattus norvegicus [5] = experiment: The compound was tested for serotonin antagonism in rat at a dose of 80 mg/Kg
Rattus norvegicus [6] = experiment: The compound was tested for decreasing motor activity in rat at a dose of 20 mg/Kg
Rattus norvegicus [7] = experiment: The compound was tested for decreasing motor activity in rat at a dose of 80 mg/Kg
Rattus norvegicus [8] = experiment: The compound was tested for decreasing motor activity in rat. at a dose of 5 mg/Kg
Rattus norvegicus [9] = experiment: The compound was tested for methamphetamine antagonism in rat at a dose of 20 mg/Kg
Rattus norvegicus [10] = experiment: The compound was tested for methamphetamine antagonism in rat at a dose of 5 mg/Kg
Rattus norvegicus [11] = experiment: The compound was tested for serotonin antagonism in rat at a dose of 20 mg/Kg
Rattus norvegicus [12] = experiment: The compound was tested for hyperexcitability in rat at a dose of 20 mg/Kg
Rattus norvegicus [13] = experiment: The compound was tested for hyperexcitability in rat at a dose of 5 mg/Kg
Rattus norvegicus [14] = experiment: The compound was tested for hyperexcitability in rat at a dose of 80 mg/Kg
Rattus norvegicus [15] = experiment: The compound was tested for methamphetamine antagonism in rat at a dose of 80 mg/Kg
Mus musculus [16] = species on record: Mus musculus; experiment: The compound was tested for analgesic activity using writhing (W) test in mouse
Mus musculus [17] = experiment: The compound was tested for activity to decrease fighting in mouse at a dose of 10 mg/Kg
Rattus norvegicus [18] = species on record: Rattus norvegicus; experiment: The compound was tested for analgesic activity using (RTF) tail-flick test in rat
Rattus norvegicus [19] = experiment: The compound was tested for decreasing motor activity in rat at a dose of 1 mg/Kg
Rattus norvegicus [20] = experiment: The compound was tested for decreasing motor activity in rat at a dose of 4 mg/Kg
Rattus norvegicus [21] = experiment: The compound was tested for analgesic activity using (RTF) tail-flick test in rat at a dose of 20 mg/Kg
Rattus norvegicus [22] = experiment: The compound was tested for decreasing motor activity in rat at a dose of 5 mg/Kg
Rattus norvegicus [23] = experiment: The compound was tested for hyperexcitability in rat. at a dose of 80 mg/Kg
Rattus norvegicus [24] = experiment: The compound was tested for decreasing motor activity in rat at a dose of 10 mg/Kg
Rattus norvegicus [25] = experiment: The compound was tested for hyperexcitability in rat at a dose of 10 mg/Kg
Mus musculus [26] = experiment: The compound was tested for analgesic activity using writhing (W) test in mouse at a dose of 40 mg/Kg
Rattus norvegicus [27] = experiment: The compound was tested for analgesic activity using (RTF) tail-flick test at a dose of 40 mg/Kg
Mus musculus [28] = experiment: The compound was tested for analgesic activity using writhing (W) test in mouse at a dose of 51 mg/Kg
Rattus norvegicus [29] = experiment: The compound was tested for hyper excitability in rat at a dose of 20 mg/Kg
Rattus norvegicus [30] = experiment: The compound was tested for hyper excitability in rat at a dose of 80 mg/Kg
Rattus norvegicus [31] = experiment: The compound was tested for hyperexcitability in rat. at a dose of 5 mg/Kg
Rattus norvegicus [32] = experiment: The compound was tested for analgesic activity using (RTF) tail-flick test in rat at a dose of 40 mg/Kg

Compound	increase in response (Mus musculus [1])	Decrease in fighting (Mus musculus [2])	Decrease in fighting (Mus musculus [3])	Decrease in activity (Rattus norvegicus [4])	Decrease in activity (Rattus norvegicus [5])	Decrease in activity (Rattus norvegicus [6])	Decrease in activity (Rattus norvegicus [7])	Decrease in activity (Rattus norvegicus [8])	Decrease in activity (Rattus norvegicus [9])	Decrease in activity (Rattus norvegicus [10])	Decrease in activity (Rattus norvegicus [11])	Possible response (Rattus norvegicus [12])	Possible response (Rattus norvegicus [13])	Possible response (Rattus norvegicus [14])	Decrease in activity (Rattus norvegicus [15])	Decrease in activity (Rattus norvegicus [22])	further results
CC(CCCc1ccc(F)cc1)c1cc(O)c2c(c1)OC(C)(C)C1=C2CN(CC(=O)N(C)C)CC1 (configuration not stated)	24%	12%	3%	11%	55%	27%	68%	0%	34%	-35%	12%	10%	0%	69%	54%	–	–
C#CCN1CCC2=C(C1)c1c(O)cc(C(C)CCCc3ccc(F)cc3)cc1OC2(C)C (configuration not stated)	–	–	-29%	–	–	–	–	–	34%	8%	–	100%	60%	–	84%	–	ED50 (Mus musculus [16]): 5.3 mg/kg; Decrease in fighting (Mus musculus [17]): 47%; ED50 (Rattus norvegicus [18]): 3.7 mg/kg; Decrease in activity (Rattus norvegicus [19]): 60%; Decrease in activity (Rattus norvegicus [20]): 77%
CCCCCC(C)C(C)c1cc(O)c2c(c1)OC(C)(C)C1=C2CN(CC(=O)NC)CC1 (configuration not stated)	–	34%	11%	-54%	97%	66%	93%	–	72%	72%	21%	100%	92%	–	72%	33%	ED50 (Mus musculus [16]): 5.1 mg/kg; increase in response (Rattus norvegicus [21]): 92%; Possible response (Rattus norvegicus [23]): 100%
CCCCCC(C)C(C)c1cc(O)c2c(c1)OC(C)(C)C1=C2CN(CC(=O)NC(=O)Nc2ccccc2)CC1 (configuration not stated)	–	–	–	-56%	-17%	42%	51%	–	-24%	-37%	-15%	0%	0%	0%	-28%	37%	–
CC(CCCc1ccc(F)cc1)c1cc(O)c2c(c1)OC(C)(C)C1=C2CN(CC(=O)NCC(N)=O)CC1 (configuration not stated)	–	–	–	-17%	26%	12%	9%	–	2%	1%	-10%	0%	0%	0%	25%	-11%	–
CNC(=O)CN1CCC2=C(C1)c1c(O)cc(C(C)CCCc3ccc(F)cc3)cc1OC2(C)C (configuration not stated)	71%	93%	56%	6%	92%	66%	94%	73%	63%	51%	63%	100%	92%	100%	73%	–	–
C#CCN1CCC2=C(C1)c1c(O)cc(C(C)C(C)CCCCC)cc1OC2(C)C (configuration not stated)	–	–	48%	81%	33%	–	–	–	80%	59%	84%	–	29%	–	73%	–	ED50 (Mus musculus [16]): 4.3 mg/kg; Decrease in fighting (Mus musculus [17]): 62%; ED50 (Rattus norvegicus [18]): 14 mg/kg; Decrease in activity (Rattus norvegicus [24]): 51%; Possible response (Rattus norvegicus [25]): 71%
CCCCCC(C)C(C)c1cc(O)c2c(c1)OC(C)(C)C1=C2CN(CCC(N)=O)CC1 (configuration not stated)	0%	–	–	-73%	-71%	65%	83%	49%	17%	-4%	-13%	0%	0%	67%	13%	–	–
CCCCCC(C)C(C)c1cc(O)c2c(c1)OC(C)(C)C1=C2CN(CC(N)=O)CC1 (configuration not stated)	6%	21%	10%	71%	78%	78%	86%	28%	58%	42%	83%	79%	65%	98%	71%	–	increase in response (Mus musculus [26]): 82%; increase in response (Rattus norvegicus [27]): 132%
CCCCCC(C)C(C)c1cc(O)c2c(c1)OC(C)(C)C1=C2CN(CC(=O)NC(=O)NC)CC1 (configuration not stated)	–	–	–	34%	89%	68%	88%	–	66%	38%	50%	71%	35%	81%	54%	63%	–
CCCCCC(C)C(C)c1cc(O)c2c(c1)OC(C)(C)C1=C2CN(CC(=O)Nc2ccccc2)CC1 (configuration not stated)	12%	–	–	3%	-13%	18%	6%	–	15%	0%	-28%	0%	0%	0%	-9%	4%	–
CCCCCC(C)C(C)c1cc(O)c2c(c1)OC(C)(C)C1=C2CN(C(C)C(=O)NC(N)=O)CC1 (configuration not stated)	–	–	–	11%	98%	67%	83%	–	50%	47%	43%	63%	50%	77%	81%	67%	–
CCCCCC(C)C(C)c1cc(O)c2c(c1)OC(C)(C)C1=C2CN(CC(=O)OCC)CC1 (configuration not stated)	35%	–	–	60%	89%	19%	60%	–	54%	18%	56%	–	–	–	81%	49%	increase in response (Mus musculus [28]): 51%; Possible response (Rattus norvegicus [29]): 12%; Possible response (Rattus norvegicus [30]): 81%; Possible response (Rattus norvegicus [31]): 0%
CCCCCC(C)C(C)c1cc(O)c2c(c1)OC(C)(C)C1=C2CN(CC(=O)N(C)C)CC1 (configuration not stated)	19%	13%	10%	–	–	65%	78%	53%	-36%	-43%	–	13%	0%	69%	26%	–	increase in response (Mus musculus [26]): 86%; increase in response (Rattus norvegicus [32]): 84%
CCCCCc1cc(O)c2c(c1)OC(C)(C)[C@@H]1CCC(C)=C[C@@H]21 [DRONABINOL]	–	–	36%	–	–	72%	–	–	–	–	–	100%	29%	–	–	15%	ED50 (Mus musculus [16]): 43 mg/kg; ED50 (Rattus norvegicus [18]): 27 mg/kg; Decrease in activity (Rattus norvegicus [24]): 41%
